The record followed here is patent publication US20150011559A1, “ANTIMICROBIAL AGENTS” (RUTGERS, THE STATE UNIVERSITY OF NEW JERSEY, priority 2012, published 2015).

≈ marks a conversion by molar mass, not a printed value.

As a reminder, the MIC is the smallest concentration in the dilution series that meets the test's criterion for growth inhibition.

The test system of test [1] is methicillin-resistant Staphylococcus aureus (MRSA). Description: Antibacterial assay (Test C), broth microdilution MIC against MRSA. Conditions: minimal inhibitory concentration, broth microdilution, growth completely inhibited; for MIC: Staphylococcus aureus, MRSA, read-out: MRSA MIC data. Format: cell-based. On the procedure:
(§1) Test C. Antibacterial Assay.
(§2) Antibacterial activity can be determined as per Clinical and Laboratory Standards Institute (CLSI) guidelines using a broth microdilution assay in which log-phase bacteria are grown at 37° C. in appropriate medium containing two-fold serial dilutions of a compound to yield final concentrations ranging from 256 to 0.06 μg/mL. For determination of minimal inhibitory concentration (MIC) values, bacterial growth is monitored after 24 to 48 hours by measuring optical density at 600 nm.
(§3) Using a procedure similar to Test C, representative compounds of the invention were tested against methicillin-susceptible Staphylococcus aureus (MSSA) and methicillin-resistant Staphylococcus aureus (MRSA).
A general note: Dilution methods test growth across graded concentrations, often in twofold steps.

Test [2] concerns methicillin-susceptible Staphylococcus aureus (MSSA). Description: Antibacterial assay (Test C), broth microdilution MIC against MSSA. The class given is cell-based. Particulars: minimal inhibitory concentration, broth microdilution, growth completely inhibited; for MIC: Staphylococcus aureus, MSSA, read-out: MSSA MIC data. The procedure: as §1, §2, §3

For `CC(C)(C)c1ccc(-c2cc(Cn3ccnc3)cc(NS(C)(=O)=O)c2)cc1` [Code 51], the “MRSA MIC data” value in test [1] (listed as 43) is 2.0 mg/L. Also, the “MSSA MIC data” value in test [2] (listed as 43) was determined as 1.0 mg/L.

As for `CC(C)(C)c1ccc(-c2ccc(CO)c(Cn3ccnc3)c2)cc1` [Code 56], the MIC came to 8 mg/L (≈ 25 µM) in test [1] and 2 mg/L (≈ 6.24 µM) in test [2].

Consider `CC(C)(C)c1ccc(-c2ncc(CNC(=N)N)s2)cc1` [Code 11], for which the MIC turned out to be 32 mg/L (≈ 111 µM) in test [1] and 8 mg/L (≈ 27.7 µM) in test [2].
